Reference: ChEMBL document CHEMBL1137670, “First occurrence of an IMP metallo-beta-lactamase in Aeromonas caviae: IMP-19 in an isolate from France” (2007)

How the values were obtained:
Acinetobacter baumannii [1] = assay: Activity of Acinetobacter baumannii AC-54/97 metallo-beta-lactamase IMP-2 expressed in Escherichia coli DH5alpha
Acinetobacter baumannii [2] = assay: Ratio of Kcat to Km of Acinetobacter baumannii AC-54/97 metallo-beta-lactamase IMP-2 expressed in Escherichia coli DH5alpha

Row | SMILES | Km (Acinetobacter baumannii [1]) [µM] | kcat (Acinetobacter baumannii [1]) [s⁻¹] | kcat/Km (Acinetobacter baumannii [2])
1 | CC1(C)S[C@@H]2[C@H](NC(=O)[C@H](N)c3ccc(O)cc3)C(=O)N2[C@H]1C(=O)O | 110 | 23 | 0.21
2 | CC1(C)S[C@@H]2[C@H](NC(=O)[C@H](C(=O)O)c3ccsc3)C(=O)N2[C@H]1C(=O)O | 700 | 252 | 0.36
3 | CO[C@@]1(NC(=O)Cc2cccs2)C(=O)N2C(C(=O)O)=C(COC(N)=O)CS[C@@H]21 | 7 | 7 | 1
4 | CC(C)(O/N=C(\C(=O)N[C@@H]1C(=O)N2C(C(=O)[O-])=C(C[n+]3ccccc3)CS[C@H]12)c1csc(N)n1)C(=O)O | 111 | 21 | 0.19
5 | C[C@@H](O)[C@H]1C(=O)N2C(C(=O)O)=C(SCCNC=N)C[C@H]12 | 24 | 22 | 0.92
6 | C[C@@H](O)[C@H]1C(=O)N2C(C(=O)O)=C(S[C@@H]3CN[C@H](C(=O)N(C)C)C3)[C@H](C)[C@H]12 | 0.3 | 1 | 3.3
